Here are results for 22 compounds from US9290496B2, “Purine derivatives” (PFIZER INC., priority 2013, dated 2016).

Common to all, as to assay type: cell-based
The target in experiment [1] is T1, EGFR L858R+T790M, endogenous (NCI-H1975) (Homo sapiens, UniProt P00533, L858R/T790M).
T1 construct: NCI-H1975 (EGFR L858R+T790M, endogenous); host or cells: NCI-H1975
Description: pEGFR Y1068 ELISA assay, NCI-H1975 cells. The conditions noted are these: inhibition of phosphorylation of EGFR at Tyr1068; NCI-H1975 NSCLC cells; 2 hr compound incubation.
Description: (§1) Phosphorylation of EGFR at Y1068 was measured by PathScan® Phospho-EGF Receptor (Try1068) Sandwich ELISA kit (#7240, Cell Signaling Technology®, Danvers, Mass.). The PathScan® Phospho-EGF Receptor (Tyr1068) Sandwich ELISA Kit is a solid phase sandwich enzyme-linked immunosorbent assay (ELISA) that detects endogenous levels of phospho-EGF Receptor (Tyr1068) protein. […] All cells were cultured according to ATCC recommendations. A549, NCI-H1975, PC9, and NCI-H3255 cells were grown in RPMI media (Invitrogen, Carlsbad, Calif.) supplemented with 10% FBS (Sigma, St Louis, Mo.), and with 1% Penn/Strep (Invitrogen). PC9-DRH cells were grown in RPMI with 10% FBS and 1 μM dacomitinib.
(§2) Cells were plated at 40,000/well in complete culture media (50 μL/well) on the bottom of clear tissue culture treated microtiter plates (#3595, Corning Inc, Corning, N.Y.) and allowed to adhere overnight at 37° C., 5% CO2. The following day, compound dilution plates were prepared in 96 well clear V-bottom 0.5 mL polypropylene block plates (#3956, Corning, Inc). Each compound was prepared as a DMSO stock solution (10 mM). Compounds were tested in duplicate on each plate, with an 11-point serial dilution curve (1:3 dilution). Compound treatment (50 μL) was added from the compound dilution plate to the cell plate. […] Plates were then incubated for 2 hr at 37° C., 5% CO2. For A549 (EGFR wildtype) assay, cells were plated in full-serum (10%) media for 24 hr prior to compound treatment; cells were treated in full serum media as described and then stimulated for 10 min with EGF (40 ng/mL/starvation media, Invitrogen). Immediately prior to the end of the incubation, ice-cold lysis buffer was prepared (1× Cell Lysis Buffer (#9803, Cell Signaling Technology), 1 mM sodium orthovanadate (Na3VO4, #96508, Sigma), 1 mM phenylmethanesulfonyl fluoride (PMSF, 52332, CalBiochem/EMD Chemicals), complete Mini EDTA-free Protease Inhibitor Cocktail Tablet (1 tablet/10 mL, #11836170001, Roche, Indianapolis, Ind.), and PhosSTOP Phosphatase Inhibitor Cocktail Tablet (1 tablet/10 mL, #04906837001, Roche) in pure water. At the end of 2 hr, media was flicked off and cells were washed once with ice-cold 1 mM Na3VO4 in PBS (100 μL/well, Invitrogen). The wash was then flicked off and ice-cold lysis buffer was added to the cells (50 μL/well). The plate was shaken for 20-30 min at 4° C. to completely lyse the cells. Sample diluent (50 μL/well) was added to the ELISA plate, and the lysate (50 μL) was diluted into the sample diluent in each well of the ELISA plate. Plates were sealed and incubated overnight at 4° C. with shaking. The next day, wells were washed four times with 1× Wash Buffer; plates were taped on lint-free paper after the final wash prior to adding Add Detection Antibody (green, 100 μL/well) to each well and incubating for 1 hr at 37° C. After incubation, wells were washed as described. HRP-Linked secondary antibody (red, 100 μL/well) was added to each well and incubated for 30 min at 37° C. After incubation, the wells were washed as described. TMB Substrate (100 μL/well) was added to each well and the plate incubated for 10 min at 37° C. or 30 min at rt maximum. Stop Solution (100 μL/well) was added to each well at the end of the incubation and plates were shaken gently for a few seconds. Absorbance was read at 450 nm within 30 min after addition of Stop Solution on a PerkinElmer EnVision Excite Multilabel Reader Method for Absorbance or on a Molecular Devices SpectraMax^384 Reader for absorbance. Data were analyzed using a four-parameter fit in Microsoft Excel.

The next experiment has as its target T2, EGFR del/T790M (PC9-DRH) (Homo sapiens, UniProt P00533, DEL746-750/T790M).
T2 construct: detects endogenous levels of phospho-EGF Receptor (Tyr1068) protein; endogenous in cells; host or cells: PC9-DRH (dacomitinib-resistant derivative of PC9, generated in house)
The experiment in a line: pEGFR Y1068 ELISA assay, PC9-DRH cells. The conditions noted are these: inhibition of phosphorylation of EGFR at Tyr1068; PC9-DRH cells (dacomitinib resistant); 2 hr compound incubation.

Experiment [2] has as its target T3, EGFR wildtype, endogenous (A549) (Homo sapiens, UniProt P00533).
T3 construct: A549 (EGFR wildtype, endogenous); host or cells: A549 (stimulated with EGF)
Description: pEGFR Y1068 ELISA assay, A549 cells. The following applies: inhibition of phosphorylation of EGFR at Tyr1068; A549 NSCLC cells; 2 hr compound incubation, then stimulated 10 min with EGF (40 ng/mL).
Description: as §1, §2

For another experiment, the target named is T4, EGFR del (PC9) (Homo sapiens, UniProt P00533, DEL746-750).
T4 construct: detects endogenous levels of phospho-EGF Receptor (Tyr1068) protein; host or cells: PC9
T4 sequence (P00533 with tags, fused parts or gaps DEL746-750): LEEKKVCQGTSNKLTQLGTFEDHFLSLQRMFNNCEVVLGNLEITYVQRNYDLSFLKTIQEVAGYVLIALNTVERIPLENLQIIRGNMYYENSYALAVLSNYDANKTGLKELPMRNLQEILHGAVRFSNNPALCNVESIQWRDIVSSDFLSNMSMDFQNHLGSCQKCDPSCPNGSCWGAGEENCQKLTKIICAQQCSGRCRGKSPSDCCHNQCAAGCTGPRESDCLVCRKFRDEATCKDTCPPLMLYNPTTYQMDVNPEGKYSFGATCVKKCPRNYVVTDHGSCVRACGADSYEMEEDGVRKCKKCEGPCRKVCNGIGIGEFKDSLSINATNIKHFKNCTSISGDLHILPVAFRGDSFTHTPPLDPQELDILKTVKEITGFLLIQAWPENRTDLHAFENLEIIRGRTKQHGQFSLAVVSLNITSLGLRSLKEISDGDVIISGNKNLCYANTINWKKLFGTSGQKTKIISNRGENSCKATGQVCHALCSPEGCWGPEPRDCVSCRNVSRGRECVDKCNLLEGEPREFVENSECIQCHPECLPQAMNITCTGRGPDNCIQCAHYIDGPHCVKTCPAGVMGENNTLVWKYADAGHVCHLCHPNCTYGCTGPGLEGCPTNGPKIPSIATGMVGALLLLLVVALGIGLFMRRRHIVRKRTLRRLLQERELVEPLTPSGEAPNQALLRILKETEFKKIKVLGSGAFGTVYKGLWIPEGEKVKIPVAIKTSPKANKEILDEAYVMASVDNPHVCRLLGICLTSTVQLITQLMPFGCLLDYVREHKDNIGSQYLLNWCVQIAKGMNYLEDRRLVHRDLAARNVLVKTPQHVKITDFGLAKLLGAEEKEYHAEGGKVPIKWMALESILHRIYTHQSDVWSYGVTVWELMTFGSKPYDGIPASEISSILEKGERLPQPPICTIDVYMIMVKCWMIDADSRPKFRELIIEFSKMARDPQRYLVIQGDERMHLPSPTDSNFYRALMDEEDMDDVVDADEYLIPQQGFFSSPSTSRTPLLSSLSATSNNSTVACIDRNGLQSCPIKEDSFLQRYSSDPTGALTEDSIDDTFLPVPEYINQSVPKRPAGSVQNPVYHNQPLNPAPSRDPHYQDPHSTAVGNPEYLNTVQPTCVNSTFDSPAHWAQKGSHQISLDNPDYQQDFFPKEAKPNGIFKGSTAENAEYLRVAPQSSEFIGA
Description: pEGFR Y1068 ELISA assay, PC9 cells. The following applies: inhibition of phosphorylation of EGFR at Tyr1068; PC9 NSCLC cells; 2 hr compound incubation.

Structures are written as SMILES.

T3 sequence (P00533 25-1210): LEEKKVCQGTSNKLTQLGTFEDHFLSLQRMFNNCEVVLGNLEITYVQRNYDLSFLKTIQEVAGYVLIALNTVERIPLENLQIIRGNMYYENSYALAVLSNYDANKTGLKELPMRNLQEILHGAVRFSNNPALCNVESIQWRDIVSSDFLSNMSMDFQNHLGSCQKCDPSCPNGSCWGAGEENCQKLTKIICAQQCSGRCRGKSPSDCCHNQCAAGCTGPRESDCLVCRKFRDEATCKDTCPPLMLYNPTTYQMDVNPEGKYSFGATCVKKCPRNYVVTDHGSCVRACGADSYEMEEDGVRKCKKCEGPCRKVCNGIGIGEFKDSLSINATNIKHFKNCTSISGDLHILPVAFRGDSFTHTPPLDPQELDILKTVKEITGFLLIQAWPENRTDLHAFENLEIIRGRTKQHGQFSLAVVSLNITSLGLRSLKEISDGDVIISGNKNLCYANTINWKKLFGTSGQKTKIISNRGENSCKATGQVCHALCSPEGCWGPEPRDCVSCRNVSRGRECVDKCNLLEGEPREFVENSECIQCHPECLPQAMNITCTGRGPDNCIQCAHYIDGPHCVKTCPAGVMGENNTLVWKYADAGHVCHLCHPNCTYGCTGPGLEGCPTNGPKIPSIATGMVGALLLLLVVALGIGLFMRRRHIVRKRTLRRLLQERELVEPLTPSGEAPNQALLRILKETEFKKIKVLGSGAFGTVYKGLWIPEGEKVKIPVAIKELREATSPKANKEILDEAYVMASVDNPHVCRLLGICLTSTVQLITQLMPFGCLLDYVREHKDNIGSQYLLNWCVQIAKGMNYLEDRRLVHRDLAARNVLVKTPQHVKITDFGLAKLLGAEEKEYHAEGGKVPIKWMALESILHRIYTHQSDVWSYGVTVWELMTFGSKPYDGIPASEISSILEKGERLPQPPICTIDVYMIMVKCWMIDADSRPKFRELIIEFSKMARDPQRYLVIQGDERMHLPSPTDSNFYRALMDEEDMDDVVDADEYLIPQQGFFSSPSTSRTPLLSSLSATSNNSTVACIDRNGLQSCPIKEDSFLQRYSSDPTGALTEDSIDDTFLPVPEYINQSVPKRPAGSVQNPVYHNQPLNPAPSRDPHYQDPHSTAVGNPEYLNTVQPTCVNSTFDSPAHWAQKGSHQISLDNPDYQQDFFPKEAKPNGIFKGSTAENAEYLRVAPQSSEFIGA
T2 sequence (P00533 with tags, fused parts or gaps DEL746-750/T790M): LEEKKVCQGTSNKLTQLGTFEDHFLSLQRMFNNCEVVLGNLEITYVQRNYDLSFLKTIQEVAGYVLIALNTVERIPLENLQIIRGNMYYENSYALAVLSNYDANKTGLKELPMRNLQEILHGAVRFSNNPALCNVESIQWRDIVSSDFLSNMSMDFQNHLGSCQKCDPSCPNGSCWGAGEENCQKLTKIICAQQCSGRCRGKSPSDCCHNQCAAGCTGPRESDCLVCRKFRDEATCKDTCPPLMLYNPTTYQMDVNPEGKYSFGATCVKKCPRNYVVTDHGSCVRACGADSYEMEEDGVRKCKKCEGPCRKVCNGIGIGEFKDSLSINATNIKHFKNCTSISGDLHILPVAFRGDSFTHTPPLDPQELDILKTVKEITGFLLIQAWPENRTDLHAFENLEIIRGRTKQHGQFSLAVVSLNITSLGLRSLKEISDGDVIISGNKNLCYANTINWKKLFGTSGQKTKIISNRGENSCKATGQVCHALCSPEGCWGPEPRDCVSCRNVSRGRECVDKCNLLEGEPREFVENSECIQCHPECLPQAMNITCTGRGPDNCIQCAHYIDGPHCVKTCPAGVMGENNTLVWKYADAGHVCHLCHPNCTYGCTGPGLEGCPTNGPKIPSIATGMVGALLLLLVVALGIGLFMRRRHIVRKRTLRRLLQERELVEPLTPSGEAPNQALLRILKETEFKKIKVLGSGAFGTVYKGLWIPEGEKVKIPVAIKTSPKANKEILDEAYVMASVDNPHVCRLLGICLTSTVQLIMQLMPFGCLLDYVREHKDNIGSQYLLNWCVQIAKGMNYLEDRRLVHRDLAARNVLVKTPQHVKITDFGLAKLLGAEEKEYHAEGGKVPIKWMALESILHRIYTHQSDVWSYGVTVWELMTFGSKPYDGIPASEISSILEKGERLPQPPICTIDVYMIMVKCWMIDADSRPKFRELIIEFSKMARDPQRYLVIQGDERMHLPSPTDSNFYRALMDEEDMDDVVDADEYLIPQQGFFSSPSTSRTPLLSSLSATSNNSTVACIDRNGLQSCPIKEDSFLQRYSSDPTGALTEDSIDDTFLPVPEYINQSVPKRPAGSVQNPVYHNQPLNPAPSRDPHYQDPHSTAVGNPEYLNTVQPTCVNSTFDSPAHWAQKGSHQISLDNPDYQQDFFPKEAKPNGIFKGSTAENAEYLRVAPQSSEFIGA
T1 sequence (P00533 25-1210 T790M/L858R): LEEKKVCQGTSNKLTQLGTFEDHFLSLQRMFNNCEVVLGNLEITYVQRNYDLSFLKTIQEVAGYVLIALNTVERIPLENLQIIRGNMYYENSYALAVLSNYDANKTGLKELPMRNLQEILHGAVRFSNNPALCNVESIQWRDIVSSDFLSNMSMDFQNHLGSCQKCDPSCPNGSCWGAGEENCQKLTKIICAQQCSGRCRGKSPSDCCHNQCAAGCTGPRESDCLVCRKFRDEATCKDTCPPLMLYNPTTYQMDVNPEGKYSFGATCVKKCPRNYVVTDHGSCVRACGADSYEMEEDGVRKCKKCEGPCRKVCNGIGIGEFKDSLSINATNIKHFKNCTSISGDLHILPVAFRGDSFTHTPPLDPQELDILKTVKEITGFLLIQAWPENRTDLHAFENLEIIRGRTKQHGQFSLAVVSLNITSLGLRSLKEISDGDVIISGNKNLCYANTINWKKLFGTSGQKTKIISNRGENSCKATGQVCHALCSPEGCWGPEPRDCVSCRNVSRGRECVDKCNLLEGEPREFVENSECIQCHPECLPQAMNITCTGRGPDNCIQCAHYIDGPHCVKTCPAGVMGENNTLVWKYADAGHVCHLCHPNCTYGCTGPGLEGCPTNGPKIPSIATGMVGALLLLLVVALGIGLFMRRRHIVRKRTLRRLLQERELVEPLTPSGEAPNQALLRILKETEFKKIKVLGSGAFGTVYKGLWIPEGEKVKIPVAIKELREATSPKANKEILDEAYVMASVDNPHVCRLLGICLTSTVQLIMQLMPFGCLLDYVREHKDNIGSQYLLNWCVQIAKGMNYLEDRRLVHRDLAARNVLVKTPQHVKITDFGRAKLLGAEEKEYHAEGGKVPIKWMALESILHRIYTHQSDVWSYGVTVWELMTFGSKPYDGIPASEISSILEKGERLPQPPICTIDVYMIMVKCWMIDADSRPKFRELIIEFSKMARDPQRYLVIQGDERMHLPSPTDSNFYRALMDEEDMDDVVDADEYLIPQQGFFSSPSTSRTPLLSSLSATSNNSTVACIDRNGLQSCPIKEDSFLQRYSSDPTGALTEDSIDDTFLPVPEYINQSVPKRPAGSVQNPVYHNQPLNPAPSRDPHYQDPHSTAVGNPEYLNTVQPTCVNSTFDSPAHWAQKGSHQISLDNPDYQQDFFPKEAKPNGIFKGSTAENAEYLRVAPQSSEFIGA
Description for EGFR del (PC9): (§3) The PathScan® Phospho-EGF Receptor (Tyr1068) Sandwich ELISA Kit is a solid phase sandwich enzyme-linked immunosorbent assay (ELISA) that detects endogenous levels of phospho-EGF Receptor (Tyr1068) protein. […] NCI-H3255 cells were licensed from NCI. […] All cells were cultured according to ATCC recommendations. A549, NCI-H1975, PC9, and NCI-H3255 cells were grown in RPMI media (Invitrogen, Carlsbad, Calif.) supplemented with 10% FBS (Sigma, St Louis, Mo.), and with 1% Penn/Strep (Invitrogen).
(§4) Each compound was prepared as a DMSO stock solution (10 mM). Compounds were tested in duplicate on each plate, with an 11-point serial dilution curve (1:3 dilution). Compound treatment (50 μL) was added from the compound dilution plate to the cell plate. […] Plates were then incubated for 2 hr at 37° C., 5% CO2. […] The wash was then flicked off and ice-cold lysis buffer was added to the cells (50 μL/well). The plate was shaken for 20-30 min at 4° C. to completely lyse the cells. Sample diluent (50 μL/well) was added to the ELISA plate, and the lysate (50 μL) was diluted into the sample diluent in each well of the ELISA plate. Plates were sealed and incubated overnight at 4° C. with shaking. The next day, wells were washed four times with 1× Wash Buffer; plates were taped on lint-free paper after the final wash prior to adding Add Detection Antibody (green, 100 μL/well) to each well and incubating for 1 hr at 37° C. After incubation, wells were washed as described. HRP-Linked secondary antibody (red, 100 μL/well) was added to each well and incubated for 30 min at 37° C. After incubation, the wells were washed as described. TMB Substrate (100 μL/well) was added to each well and the plate incubated for 10 min at 37° C. or 30 min at rt maximum. Stop Solution (100 μL/well) was added to each well at the end of the incubation and plates were shaken gently for a few seconds. […] Data were analyzed using a four-parameter fit in Microsoft Excel.
Description for EGFR del/T790M (PC9-DRH): as §3, §4

Take `C=CC(=O)NC1(C)CN(c2nc(Nc3ccc(N4CCN(C)CC4)cc3)c3ncn(C(C)C)c3n2)C1` [Example 12, N-(1-(9-isopropyl-6-((4-(4-methylpiperazin-1-yl)phenyl)amino)-9H-purin-2-yl)-3-methylazetidin-3-yl)acrylamide]: the IC50 in experiment [1] amounted to 6 nM; against EGFR del/T790M (PC9-DRH), 10 nM; in experiment [2] it was 140 nM.
`C=CC(=O)N1C[C@@H]2CN(c3nc(Nc4cnn(C)c4)c4ncn(CC)c4n3)C[C@@H]2C1` [Example 16, 1-((cis)-5-(9-ethyl-6-((1-methyl-1H-pyrazol-4-yl)amino)-9H-purin-2-yl)hexahydropyrrolo[3,4-c]pyrrol-2(1H)-yl)prop-2-en-1-one]: the IC50 was 88 nM in experiment [1], 91 nM at EGFR del/T790M (PC9-DRH) and 507 nM in experiment [2].
Turning to `C=CC(=O)N1C[C@@H]2CN(c3nc(Nc4cnn(C)c4C)c4ncn(C(C)C)c4n3)C[C@@H]2C1` [Example 17, 1-((cis)-5-(6-((1,5-dimethyl-1H-pyrazol-4-yl)amino)-9-isopropyl-9H-purin-2-yl)hexahydropyrrolo[3,4-c]pyrrol-2(1H)-yl)prop-2-en-1-one], the IC50 is 468 nM in experiment [1], 2500 nM against EGFR del/T790M (PC9-DRH) and at least 10000 nM in experiment [2].
For `C=CC(=O)N1C[C@@H]2CN(c3nc(Nc4ccc(N5CCN(C)CC5)cc4)c4ncn(C(C)(C)C)c4n3)C[C@@H]2C1` [Example 18, 1-((cis)-5-(9-(tert-butyl)-6-((4-(4-methylpiperazin-1-yl)phenyl)amino)-9H-purin-2-yl)hexahydropyrrolo[3,4-c]pyrrol-2(1H)-yl)prop-2-en-1-one] the same measures were 32 nM, 27 nM and 4570 nM.
Take `C=CC(=O)Nc1cccc(Oc2nc(Nc3ccc(N4CCN(C)CC4)cc3)c3ncn(C(C)C)c3n2)c1` [Example 22, N-(3-((9-isopropyl-6-((4-(4-methylpiperazin-1-yl)phenyl)amino)-9H-purin-2-yl)oxy)phenyl)acrylamide]: the IC50 in experiment [1] came to 6 nM; at EGFR del/T790M (PC9-DRH), 9 nM; in experiment [2], 39 nM.
On to `C=CC(=O)N1C[C@@H]2CN(c3nc(Nc4cnn(C)c4)c4ncn(C(C)C)c4n3)C[C@@H]2C1` [Example 25, 1-((cis)-5-(9-isopropyl-6-((1-methyl-1H-pyrazol-4-yl)amino)-9H-purin-2-yl)hexahydropyrrolo[3,4-c]pyrrol-2(1H)-yl)prop-2-en-1-one], for which the IC50 in experiment [1] was 49 nM; on EGFR del/T790M (PC9-DRH) it was 6 nM; in experiment [2], 805 nM.
Turning to `C=CC(=O)N1C[C@@H]2CN(c3nc(Nc4ccc(N5CCN(C)CC5)cc4)c4ncn(C)c4n3)C[C@@H]2C1` [Example 33, 1-((cis)-5-(9-methyl-6-((4-(4-methylpiperazin-1-yl)phenyl)amino)-9H-purin-2-yl)hexahydropyrrolo[3,4-c]pyrrol-2(1H)-yl)prop-2-en-1-one], the IC50 in experiment [1] is 18 nM; at EGFR del/T790M (PC9-DRH), 4 nM; in experiment [2], 324 nM.
Consider `C=CC(=O)N[C@H]1CCN(c2nc(Nc3ccc(N4CCN(C(C)C)CC4)cc3)c3ncn(C(C)C)c3n2)C1` [Example 36, (S)-N-(1-(9-isopropyl-6-((4-(4-isopropylpiperazin-1-yl)phenyl)amino)-9H-purin-2-yl)pyrrolidin-3-yl)acrylamide], for which the results for the IC50 (in experiment [1]; against EGFR del/T790M (PC9-DRH); in experiment [2]) were 8 nM, 9 nM and 242 nM, respectively.
For `C=CC(=O)N[C@H]1CCN(c2nc(Nc3ccc(N4CCN(C)CC4)cc3)c3ncn(C)c3n2)C1` [Example 38, (S)-N-(1-(9-methyl-6-((4-(4-methylpiperazin-1-yl)phenyl)amino)-9H-purin-2-yl)pyrrolidin-3-yl)acrylamide], the results for the 50% inhibitory concentration (IC50) (in experiment [1]; against EGFR del/T790M (PC9-DRH); in experiment [2]) were 15 nM, 6 nM and 255 nM, respectively.
`C=CC(=O)NC1(C)CN(c2nc(Nc3cnn(C4CCN(C)CC4)c3)c3ncn(C(C)C)c3n2)C1` [Example 39, N-(1-(9-isopropyl-6-((1-(1-methylpiperidin-4-yl)-1H-pyrazol-4-yl)amino)-9H-purin-2-yl)-3-methylazetidin-3-yl)acrylamide]: the IC50 was 20 nM at EGFR del (PC9), 66 nM in experiment [1], 10 nM against EGFR del/T790M (PC9-DRH) and 2850 nM in experiment [2].
`C=CC(=O)N[C@H]1CCN(c2nc(Nc3ccc(N4CCN(CC)CC4)cc3)c3ncn(C(C)C)c3n2)C1` [Example 40, (S)-N-(1-(6-((4-(4-ethylpiperazin-1-yl)phenyl)amino)-9-isopropyl-9H-purin-2-yl)pyrrolidin-3-yl)acrylamide]: the IC50 in experiment [1] came out at 8 nM; on EGFR del/T790M (PC9-DRH), 5 nM; in experiment [2], 74 nM.
Turning to `C=CC(=O)NC1(C)CN(c2nc(Nc3cnn(CCN(C)C)c3)c3ncn(C(C)C)c3n2)C1` [Example 42, N-(1-(6-((1-(2-(dimethylamino)ethyl)-1H-pyrazol-4-yl)amino)-9-isopropyl-9H-purin-2-yl)-3-methylazetidin-3-yl)acrylamide], the concentration for half-maximal inhibition (IC50) was determined as 26 nM in experiment [1], 38 nM against EGFR del/T790M (PC9-DRH) and 1350 nM in experiment [2].
Turning to `C=CC(=O)N[C@H]1CCN(c2nc(Nc3cnn(CCN(C)C)c3)c3ncn(C(C)C)c3n2)C1` [Example 43, (S)-N-(1-(6-((1-(2-(dimethylamino)ethyl)-1H-pyrazol-4-yl)amino)-9-isopropyl-9H -purin-2-yl)pyrrolidin-3-yl)acrylamide], the IC50 in experiment [1] stood at 74 nM; against EGFR del/T790M (PC9-DRH) it was 18 nM; in experiment [2], 1480 nM.
Consider `C=CC(=O)NC1(C)CN(c2nc(Nc3cnn(C4CCN(C)C4)c3)c3ncn(C(C)C)c3n2)C1` (stereo not drawn) [Example 44, N-(1-(9-isopropyl-6-((1-(1-methylpyrrolidin-3-yl)-1H-pyrazol-4-yl)amino)-9H-purin-2-yl)-3-methylazetidin-3-yl)acrylamide], for which the IC50 in experiment [1] stood at 24 nM; on EGFR del/T790M (PC9-DRH), 7 nM; in experiment [2], 1150 nM.
Turning to `C=CC(=O)N[C@H]1CCN(c2nc(Nc3cnn(C4CCN(C)C4)c3)c3ncn(C(C)C)c3n2)C1` (stereo partly drawn) [Example 45, N-((3S)-1-(9-isopropyl-6-((1-(1-methylpyrrolidin-3-yl)-1H-pyrazol-4-yl)amino)-9H -purin-2-yl)pyrrolidin-3-yl)acrylamide], the IC50 amounted to 7 nM against EGFR del (PC9), 26 nM in experiment [1], 3 nM on EGFR del/T790M (PC9-DRH) and 1910 nM in experiment [2].
Take `C=CC(=O)N[C@@H]1CN(c2nc(Nc3ccc(N4CCN(C)CC4)cc3)c3ncn(C(C)(C)C)c3n2)C[C@H]1F` [Example 52, N-((3R,4R)-1-(9-(tert-butyl)-6-((4-(4-methylpiperazin-1-yl)phenyl)amino)-9H-purin-2-yl)-4-fluoropyrrolidin-3-yl)acrylamide]: the half-inhibitory concentration (IC50) in experiment [1] was 742 nM; at EGFR del/T790M (PC9-DRH), 6 nM; in experiment [2], at least 10000 nM.
For the compound `C=CC(=O)NC1(C)CN(c2nc(Nc3cnn(C)c3)c3ncn(CC)c3n2)C1` [Example 56, N-(1-(9-ethyl-6-((1-methyl-1H-pyrazol-4-yl)amino)-9H-purin-2-yl)-3-methylazetidin-3-yl)acrylamide], the figures for the IC50 (in experiment [1]; on EGFR del/T790M (PC9-DRH); in experiment [2]) were 108 nM, 2 nM and 504 nM, respectively.
With `C=CC(=O)N1CCC[C@@H](Oc2nc(Nc3cnn(C)c3)c3ncn(C(C)C)c3n2)C1` [Example 57, (R)-1-(3((9-isopropyl-6-((1-methyl-1H-pyrazol-4-yl)amino)-9H-purin-2-yl)oxy)piperidin-1-yl)prop-2-en-1-one], the IC50 in experiment [1] was 89 nM; against EGFR del/T790M (PC9-DRH), 44 nM; in experiment [2], 3040 nM.
With `C=CC(=O)N[C@@H]1CN(c2nc(Nc3cn(C)nc3C)c3ncn(C(C)C)c3n2)C[C@H]1F` [Example 61, N-((3R,4R)-1-(6-((1,3-dimethyl-1H-pyrazol-4-yl)amino)-9-isopropyl-9H-purin-2-yl) -4-fluoropyrrolidin-3-yl)acrylamide], the IC50 at EGFR del (PC9) was 6650 nM; in experiment [1] it was 6140 nM; on EGFR del/T790M (PC9-DRH), 2130 nM; in experiment [2], at least 10000 nM.
As to `C=CC(=O)N[C@@H]1CN(c2nc(Nc3cnn(C)c3)c3ncn(C(C)C)c3n2)CC1(F)F` [Example 74, (R)—N-(4,4-difluoro-1-(9-isopropyl-6-((1-methyl-1H-pyrazol-4-yl)amino)-9H-purin-2-yl)pyrrolidin-3-yl)acrylamide], the results for the 50% inhibitory concentration (IC50) (in experiment [1]; at EGFR del/T790M (PC9-DRH); in experiment [2]) were 5 nM, 2 nM and 49 nM, respectively.
`C=CC(=O)N[C@@H]1CN(c2nc(Nc3cn(C)nc3C)c3ncn(CC)c3n2)C[C@H]1F` [Example 76, N-((3R,4R)-1-(6-((1,3-dimethyl-1H-pyrazol-4-yl)amino)-9-ethyl-9H-purin-2-yl)-4-fluoropyrrolidin-3-yl)acrylamide]: the IC50 came to 30 nM in experiment [1], 2 nM against EGFR del/T790M (PC9-DRH) and 394 nM in experiment [2].
With `C=CC(=O)N[C@@H]1CN(c2nc(Nc3cn(C4CCN(C)C4)nc3C)c3ncn(CC)c3n2)C[C@H]1F` (stereo partly drawn) [Example 80, N-((3R,4R)-1-(9-ethyl-6-((3-methyl-1-(1-methylpyrrolidin-3-yl)-1H-pyrazol-4-yl)amino)-9H-purin-2-yl)-4-fluoropyrrolidin-3-yl)acrylamide], the IC50 in experiment [1] came out at 22 nM; on EGFR del/T790M (PC9-DRH), 10 nM; in experiment [2] it was 425 nM.
